According to US20130331326A1, “METHOD OF INDUCING HEMATOPOIETIC RECONSTRUCTION” (DUKE UNIVERSITY, priority 2011, published 2013):
“Also recorded” adds a separate entry of the source.

How the values were obtained:
[1] = system: BM hematopoietic stem and progenitor cells; assay: Hematopoietic regeneration in C57B16 mice after 700 cGy TBI (progenitor assays, competitive repopulation); format: in vivo, mouse
Protocol: (§1) BM cells were collected into PBS (Cellgro, Manassas, Va.) with 10% fetal bovine serum (Hyclone, Logan, Utah) and 1% penicillin/streptomycin (GIBCO, Grand Island, N.Y.). Viable BM cells were quantified using Trypan Blue Stain (Lonza, Basel, Switzerland) to exclude apoptotic and dead cells. Cells were then incubated with anti-c-kit, anti-Sca-1, anti-lineage cocktail, anti-CD41, anti-CD48, and anti-CD150 antibodies (Biolegend and eBiosciences, San Diego, Calif.; BD, San Jose, Calif.) to measure ckit^+sca-1^+lin^− (KSL) progenitor cells or CD150′CD41^−CD48^−KSL (SLAM/KSL) as previously described (Kiel et al, Cell 121:1109-1121 (2005)). Colony forming cells (CFCs) and CFU-S12 assays were also performed to measure functional hematopoietic stem/progenitor cell content. For CFCs, either whole BM or cultured lineage−cells, or KSL cells were plated onto methylcellulose (StemCell Technologies, Vancouver, BC, Canada), and colonies were scored on day 14. 1×10^5 BM or 2×10^5 cells were collected from donor mice and injected via tail vein into recipient C57B16 mice that had been given 950 cGy TBI. At day +12 post-injection, spleens from recipient mice were harvested and stained with Bouin's fixative solution (Ricca Chemical Company, Arlington, Tex.), and colonies were counted as previously described (Till and MeRadiat. Res. 14:213-222 (1961)). Complete blood counts were performed on a HemaVet 950 (Drew Scientific, Dallas, Tex.).
(§2) Competitive repopulation assays were also performed using donor C57B16 mice (CD45.2^+) that had been irradiated with 700 cGy TBI and gavaged daily with 10 μg/G erlotinib (Genentech, San Francisco, Calif.) or 150 μl water beginning on day 0 and continued through day +14. Donor BM cells were injected via tail vein into recipient B6.SJL mice (CD45.1^+) at a dose of 5×10^5 cells with a competing dose of host 1×10^5 BM MNCs. Tie2Cre;Bak1^−/−;Bax^FL/− mice were gavaged daily with 10 μg/G erlotinib or water starting day −3 and given 300 cGy TBI on day 0. Erlotinib administration continued until the timepoint of donor BM cell collection and analysis. Tie2Cre;Bak1^−/−;Bax^FL/− BM cells were injected via tail vein into recipient CD45.1^+ mice at a cell dose of 3×10^5 cells with a competing dose of host 1×10^5 CD45.1^+ cells. Multilineage hematopoietic reconstitution was measured in the PB of recipient mice by flow cytometry at 4, 8, and 12 weeks post-transplant. For survival studies with erlotinib administration, C57B16 mice were exposed to 700 cGy and then given 10 μg/G erlotinib or water starting day −3 and continuing daily through day +14.
Ten micrometer sections were cut using they CryoJane tape system (Instrumedics Inc, Hackensack, N.J., USA). Femurs were stained with hematoxylin and eosin or anti-mouse endothelial cell antibody (MECA-32) as previously described (Salter et al, Blood 113:2104-2107 (2009)) to assess BM cellularity and the BM vasculature after irradiation. Images were obtained using an Axiovert 200 microscope (Carl Zeiss Microscopy, Thornwood, N.Y.) or a Leica SP5 confocal microscope (Leica Microsystems Inc, Buffalo Grove, Ill.). Adobe Photoshop software (version 9.0.2, Adobe Systems, San JoSe, Calif.) was used to quantify positive signal as a measure of spatial distribution in the fields (Lehr et al, J. Histochem. Cytochem. 45:1559-1565 (1997), Lehr et al, J. Histochem. Cytochem. 47:119-126 (1999)).

C57B16 mice = assay: Survival of C57B16 mice after 700 cGy TBI; format: in vivo, mouse
BM lin- cells = assay: Culture of BM lin- cells from VavCre;EGFRfl/fl or VavCre;EGFR+/+ mice with erlotinib; format: cell-based, mouse; conditions: TSF + 10 uM erlotinib, 72 hours
Protocol: Cell apoptosis and necrosis were analyzed by flow cytometry according to manufacturer's protocols with Annexin V-FITC and 7-AAD staining (BD, San Jose, Calif.). […] Cells were fixed and permeabilized with Fix Buffer I and Perm Buffer III (BD), and then stained with mouse anti-phospho-AKT-S473 PE (BD) or isotype control. Cell cycle analysis was performed by flow cytometric analysis modified from previous reports (Jordan et al, Exp. Hematol. 24:1347-1355 (1996), Chute et al, Hum. Gene Ther. 11:2515-2528 (2000), Sungartz et al, Blood 119:1308-1309 (2012)). Briefly, cells were fixed and permeabilized with 0.25% Saponin (Calbiochem, La Jolla, Calif.), 2.5% paraformaldehyde, 2% FBS in 1×PBS, and then labeled with Ki67-FITC and 7-AAD (BD). BM lin^− cells from VavCre;EGFR^+/+ or VavCre;EGER^fl/fl were cultured with TSF or TSF+10 μM erlotinib, or TSF following 300 cGy for 72 hours, and then collected for total cell counts and CFCs analysis.

EGFR = EGFR phosphorylation in BM KSL cells of erlotinib-treated Tie2Cre;Bak1-/-;BaxFl/- mice; format: in vivo, mouse; conditions: erlotinib-treated Tie2Cre;Bak1-/-;BaxFl/- mice vs water
Protocol: (§3) FIGS. 5A-5D. (FIG. 5A) Schematic diagram of irradiation and treatment of Tie2Cre;Bak1^−/−;Bax^Fl/− mice with erlotinib or water starting 3 days prior to TBI with evaluation of BM progenitor cell content and HSC repopulating capacity via competitive transplantation at +2 hours after TBI. […] A Student's 2-tailed t-test was used for all statistical analyses.

[2] = system: BM HSC and progenitor cells; assay: Erlotinib pre-treatment of Tie2Cre;Bak1-/-;BaxFl/- mice, 300 cGy TBI, BM HSC and progenitor cell content; format: in vivo, mouse
Protocol: as §3, §2

BM KSL cells = assay: Culture of 300 cGy-irradiated BM KSL cells with BM ECs or TSF cytokines; CFC and CFU-S12 recovery; format: cell-based, mouse; conditions: screen of candidate proteins from cytokine array; data not shown
Protocol: as §1, with “Tex.). […]” for “Tex.).”

[3] = 700 cGy TBI, erlotinib 10 ug/G oral gavage daily through day +14, vs water

C#Cc1cccc(Nc2ncnc3cc(OCCOC)c(OCCOC)cc23)c1 [erlotinib]
HSC pool at day +14 post-TBI by competitive repopulation assay ([1]; 700 cGy TBI, erlotinib 10 ug/G oral gavage daily through day +14): essentially absent | BM CFCs and CFU-S12 at day +14 [1, 3]: significantly reduced; also recorded: persistent, significant depletion | BM cellularity at day +14 [1, 3]: persistent BM hypoplasia | BM HSCs and progenitor cells at day +7 post-TBI ([1]; 700 cGy TBI, erlotinib 10 ug/G oral gavage daily, same in control mice, data not shown): depletion of BM HSCs and progenitor cells | short-term and longer-term HSCs (4 week through 12 week donor cell engraftment) ([1]; 700 cGy TBI, erlotinib-treated donors vs control): marked reduction | hematopoietic reconstitution following total body irradiation ([1]; Example 1, administration of erlotinib to mice): marked delay | mice that survived beyond day +27 (C57B16 mice; 10 ug/G erlotinib oral gavage from 3 days prior to TBI for 14 days post-irradiation, water controls 53% at day +30): 0 of 15 | mice that died by day +27 (C57B16 mice; 10 ug/G erlotinib via gavage from 3 days prior to TBI until day +14): 15 of 15 | total cells and CFCs (BM lin- cells; EGFR+/+ BM lin- cells): decreased yield in total cells and CFCs; also recorded: significantly less total cells and CFCs | total cell expansion or CFC production (BM lin- cells; EGFRfl/fl BM lin- cells, vs cytokines alone): no significant effect | EGFR-phosphorylation in BM KSL cells (EGFR): decrease in EGFR-phosphorylation | engraftment of myeloid cells, B cells and T cells at 12 weeks post-transplant ([2]; BM from erlotinib-treated Tie2Cre;Bak1-/-;BaxFl/- mice vs irradiated control): reduced engraftment | BM KSL cells and CFU-S12 following TBI ([2]; erlotinib from 3 days prior to 300 cGy TBI, +2 hours after irradiation, vs water): decreased BM KSL cells and decreased BM CFU-S12 content; also recorded: significantly decreased | decreased HSC content (4- to 12-week engraftment in competitively transplanted recipients) ([2]; erlotinib-treated, 300 cGy irradiated Tie2Cre;Bak1-/-;BaxFl/- donors vs water): more than 20 fold

B1: IL17f: candidate cytokine from BM serum array screened on irradiated BM KSL cells (protein, UniProt Q7TNI7 29-161, looked up)
Interleukin-17F: RKNPKAGVPALQKAGNCPPLEDNTVRVDIRIFNQNQGISVPREFQNRSSSPWDYNITRDPHRFPSEIAEAQCRHSGCINAQGQEDSTMNSVAIQQEILVLRREPQGCSNSFRLEKMLLKVGCTCVKPIVHQAA
modulation of the activity of FL/- ECs or FL/+ ECs in promoting BM KSL cell recovery after irradiation (BM KSL cells): none modulated the activity | recovery of BM KSL cells in vitro following irradiation (BM KSL cells): none of these proteins significantly altered the recovery

B2: IL5: candidate cytokine from BM serum array screened on irradiated BM KSL cells (protein, UniProt P04401 21-133, looked up)
Interleukin-5: MEIPMSTVVKETLTQLSAHRALLTSNETMRLPVPTHKNHQLCIGEIFQGLDILKNQTVRGGTVEMLFQNLSLIKKYIDRQKEKCGEERRRTRQFLDYLQEFLGVMSTEWAMEG
modulation of the activity of FL/- ECs or FL/+ ECs in promoting BM KSL cell recovery after irradiation (BM KSL cells): none modulated the activity | recovery of BM KSL cells in vitro following irradiation (BM KSL cells): none of these proteins significantly altered the recovery

B3: KC: keratinocyte-derived chemokine, candidate protein screened on irradiated BM KSL cells (protein, UniProt P12850 25-96, looked up)
Growth-regulated alpha protein: APIANELRCQCLQTMAGIHLKNIQSLKVLPSGPHCTQTEVIATLKNGREACLDPEAPLVQKIVQKMLKGVPK
modulation of the activity of FL/- ECs or FL/+ ECs in promoting BM KSL cell recovery after irradiation (BM KSL cells): none modulated the activity | recovery of BM KSL cells in vitro following irradiation (BM KSL cells): none of these proteins significantly altered the recovery

B4: IL17: candidate cytokine from BM serum array screened on irradiated BM KSL cells (protein, UniProt Q62386 26-158, looked up)
Interleukin-17A: AAIIPQSSACPNTEAKDFLQNVKVNLKVFNSLGAKVSSRRPSDYLNRSTSPWTLHRNEDPDRYPSVIWEAQCRHQRCVNAEGKLDHHMNSVLIQQEILVLKREPESCPFTFRVEKMLVGVGCTCVASIVRQAA
modulation of the activity of FL/- ECs or FL/+ ECs in promoting BM KSL cell recovery after irradiation (BM KSL cells): none modulated the activity | recovery of BM KSL cells in vitro following irradiation (BM KSL cells): none of these proteins significantly altered the recovery
